Laboratory results published in patent publication US12516056B2, “Compounds for inhibition of janus kinase 1” (MANKIND PHARMA LTD., priority 2019, dated 2026).
Structures can show the parent of a compound that is named as a salt. Where two headings read alike, the source gives them in different places.

Key:
[1] = tested on: STAT3 phosphorylation by IL-6 in TF-1 cells; experiment: JAK cellular assay: STAT3 phosphorylation by IL-6 in TF-1 cells (HTRF); type: cell-based; details: Homo sapiens, TF-1, TF-1 cells, IL-6 30 ng/ml, pSTAT3 HTRF; read-out: Cell Based Assay (μM) TF-1/IL-6/pSTAT3
Method in brief: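 Phospho-STAT3 (IL-6, 30 ng/ml) and phospho-STAT5 (GMCSF, 5 ng/ml) read by HTRF in lysates after 20 min cytokine exposure, minus unstimulated-cell background. Cells were serum-starved overnight, plated at 120,000/well, given compound 30 min at 37 °C beforehand; DMSO 0.2% final.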

Recombinant JAK2 = biological target: T1, Recombinant JAK2 (Homo sapiens, UniProt O60674); experiment: JAK biochemical assay (LANCE Ultra TR-FRET), JAK2; details: recombinant JAK2, TR-FRET; read-out: Biochemical Assay (μM) JAK2
T1 construct: purchased Carna Biosciences
Method in brief: (§1)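 % inhibition relative to vehicle was derived from TR-FRET signal proportional to ULight-substrate phosphorylation. Reactions used recombinant kinase in HEPES pH 7.5 buffer containing EGTA, MgCl2, DTT and Tween-20.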

Recombinant JAK1 = biological target: T2, Recombinant JAK1 (Homo sapiens, UniProt P23458); experiment: JAK biochemical assay (LANCE Ultra TR-FRET), JAK1; details: recombinant JAK1, TR-FRET; read-out: Biochemical Assay (μM) JAK1
T2 construct: purchased Carna Biosciences
Method in brief: as §1

Recombinant JAK3 = biological target: T3, Recombinant JAK3 (Homo sapiens, UniProt P52333); experiment: JAK biochemical assay (LANCE Ultra TR-FRET), JAK3; details: recombinant JAK3, TR-FRET; read-out: Biochemical Assay (μM) JAK3
T3 construct: purchased Carna Biosciences
T3 sequence (P52333 1-1124): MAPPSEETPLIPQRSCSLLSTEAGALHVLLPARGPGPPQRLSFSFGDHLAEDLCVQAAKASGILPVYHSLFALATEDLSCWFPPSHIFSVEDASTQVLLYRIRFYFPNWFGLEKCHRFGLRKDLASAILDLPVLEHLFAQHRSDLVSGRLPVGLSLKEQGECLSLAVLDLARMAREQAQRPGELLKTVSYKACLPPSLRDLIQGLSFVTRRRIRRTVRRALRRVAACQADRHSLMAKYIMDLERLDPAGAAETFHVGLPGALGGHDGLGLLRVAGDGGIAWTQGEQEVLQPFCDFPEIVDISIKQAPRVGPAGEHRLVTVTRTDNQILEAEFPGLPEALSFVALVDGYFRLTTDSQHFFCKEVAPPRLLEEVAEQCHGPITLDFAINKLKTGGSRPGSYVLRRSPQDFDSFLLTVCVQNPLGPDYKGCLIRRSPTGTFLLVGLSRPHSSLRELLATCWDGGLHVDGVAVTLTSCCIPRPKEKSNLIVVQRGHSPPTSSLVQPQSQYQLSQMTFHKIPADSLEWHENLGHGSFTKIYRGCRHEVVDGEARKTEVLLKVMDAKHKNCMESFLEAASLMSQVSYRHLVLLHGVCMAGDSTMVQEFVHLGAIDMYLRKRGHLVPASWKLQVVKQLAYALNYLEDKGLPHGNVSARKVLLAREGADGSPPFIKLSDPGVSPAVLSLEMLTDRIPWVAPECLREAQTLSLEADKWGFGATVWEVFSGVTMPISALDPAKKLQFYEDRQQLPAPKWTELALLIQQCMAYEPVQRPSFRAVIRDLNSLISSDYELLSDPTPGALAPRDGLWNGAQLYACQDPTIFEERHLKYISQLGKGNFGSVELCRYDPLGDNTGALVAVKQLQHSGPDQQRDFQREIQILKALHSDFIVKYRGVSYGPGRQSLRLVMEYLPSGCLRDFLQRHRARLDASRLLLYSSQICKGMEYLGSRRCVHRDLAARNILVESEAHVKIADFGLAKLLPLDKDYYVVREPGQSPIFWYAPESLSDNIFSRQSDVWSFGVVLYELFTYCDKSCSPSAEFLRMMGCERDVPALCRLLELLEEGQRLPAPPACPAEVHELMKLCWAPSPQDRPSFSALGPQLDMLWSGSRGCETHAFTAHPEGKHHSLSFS
Method in brief: as §1

[2] = tested on: STAT5 phosphorylation by IL-2 in HT-2 cells; experiment: STAT5 phosphorylation by IL-2 in HT-2 cells (HTRF); type: cell-based; details: IL-2 50 U/ml, pSTAT5 HTRF, read-out: Cell Based Assay (μM) HT-2/IL-2/pSTAT5
Experimental: HT-2 cells were starved […] in RPMI phenol red with 10% fetal bovine serum for 4 hours in CO2 incubator maintained at 37° c. Compounds were diluted in DMSO and added to 96 well plate containing a final density of 1,20,000 cells per well. Cells and compounds are incubated for 30 minutes in CO2 incubator maintained at 37° C. and final DMSO concentration in cell based assay was 0.2%. Human recombinant cytokine, IL-2 (50 U/ml) was added to the plate containing cells and compound and incubated for 20 minutes with gentle tapping/shaking at every 5 minutes once. Compound mediated effects on STAT5 phosphorylation was measured in the lysates prepared by using CISBIO pSTAT5 detection kit by HTRF method. Background signal obtained from cells which were not activated with cytokines, was subtracted from vehicle controls and compound treated wells.

Recombinant TYK2 = biological target: T4, Recombinant TYK2 (Homo sapiens, UniProt P29597); experiment: JAK biochemical assay (LANCE Ultra TR-FRET), TYK2; details: recombinant TYK2, TR-FRET; read-out: Biochemical Assay (μM) TYK2
T4 construct: purchased Carna Biosciences
Method in brief: as §1

T1 sequence (O60674 whole entry): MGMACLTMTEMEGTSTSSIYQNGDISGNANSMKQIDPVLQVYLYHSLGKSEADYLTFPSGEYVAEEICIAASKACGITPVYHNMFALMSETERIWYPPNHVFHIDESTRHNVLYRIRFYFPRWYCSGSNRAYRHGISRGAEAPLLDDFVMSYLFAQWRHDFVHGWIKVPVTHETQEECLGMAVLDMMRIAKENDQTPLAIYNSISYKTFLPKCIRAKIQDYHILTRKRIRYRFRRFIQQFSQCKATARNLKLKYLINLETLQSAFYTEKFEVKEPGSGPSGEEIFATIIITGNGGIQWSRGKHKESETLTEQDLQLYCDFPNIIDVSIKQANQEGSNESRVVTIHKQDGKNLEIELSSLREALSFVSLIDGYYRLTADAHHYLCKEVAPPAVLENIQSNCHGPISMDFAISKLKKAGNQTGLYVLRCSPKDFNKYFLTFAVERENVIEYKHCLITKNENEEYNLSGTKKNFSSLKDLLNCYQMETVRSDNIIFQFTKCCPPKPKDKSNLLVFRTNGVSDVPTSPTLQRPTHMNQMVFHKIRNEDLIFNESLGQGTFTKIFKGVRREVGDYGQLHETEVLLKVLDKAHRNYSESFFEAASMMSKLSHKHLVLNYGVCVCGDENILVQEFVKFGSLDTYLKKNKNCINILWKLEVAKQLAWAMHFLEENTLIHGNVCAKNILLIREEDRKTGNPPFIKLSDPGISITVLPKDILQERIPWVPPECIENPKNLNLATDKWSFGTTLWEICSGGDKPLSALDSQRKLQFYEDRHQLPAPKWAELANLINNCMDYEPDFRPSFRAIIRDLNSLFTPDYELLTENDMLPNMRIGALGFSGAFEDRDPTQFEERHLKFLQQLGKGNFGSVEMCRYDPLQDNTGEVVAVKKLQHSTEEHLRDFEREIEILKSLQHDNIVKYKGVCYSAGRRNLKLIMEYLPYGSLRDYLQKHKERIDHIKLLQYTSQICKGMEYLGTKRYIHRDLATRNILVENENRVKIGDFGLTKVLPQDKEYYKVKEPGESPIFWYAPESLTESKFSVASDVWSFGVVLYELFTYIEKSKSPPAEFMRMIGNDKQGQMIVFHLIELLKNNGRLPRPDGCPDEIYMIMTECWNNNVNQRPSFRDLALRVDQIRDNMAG
T4 sequence (P29597 whole entry): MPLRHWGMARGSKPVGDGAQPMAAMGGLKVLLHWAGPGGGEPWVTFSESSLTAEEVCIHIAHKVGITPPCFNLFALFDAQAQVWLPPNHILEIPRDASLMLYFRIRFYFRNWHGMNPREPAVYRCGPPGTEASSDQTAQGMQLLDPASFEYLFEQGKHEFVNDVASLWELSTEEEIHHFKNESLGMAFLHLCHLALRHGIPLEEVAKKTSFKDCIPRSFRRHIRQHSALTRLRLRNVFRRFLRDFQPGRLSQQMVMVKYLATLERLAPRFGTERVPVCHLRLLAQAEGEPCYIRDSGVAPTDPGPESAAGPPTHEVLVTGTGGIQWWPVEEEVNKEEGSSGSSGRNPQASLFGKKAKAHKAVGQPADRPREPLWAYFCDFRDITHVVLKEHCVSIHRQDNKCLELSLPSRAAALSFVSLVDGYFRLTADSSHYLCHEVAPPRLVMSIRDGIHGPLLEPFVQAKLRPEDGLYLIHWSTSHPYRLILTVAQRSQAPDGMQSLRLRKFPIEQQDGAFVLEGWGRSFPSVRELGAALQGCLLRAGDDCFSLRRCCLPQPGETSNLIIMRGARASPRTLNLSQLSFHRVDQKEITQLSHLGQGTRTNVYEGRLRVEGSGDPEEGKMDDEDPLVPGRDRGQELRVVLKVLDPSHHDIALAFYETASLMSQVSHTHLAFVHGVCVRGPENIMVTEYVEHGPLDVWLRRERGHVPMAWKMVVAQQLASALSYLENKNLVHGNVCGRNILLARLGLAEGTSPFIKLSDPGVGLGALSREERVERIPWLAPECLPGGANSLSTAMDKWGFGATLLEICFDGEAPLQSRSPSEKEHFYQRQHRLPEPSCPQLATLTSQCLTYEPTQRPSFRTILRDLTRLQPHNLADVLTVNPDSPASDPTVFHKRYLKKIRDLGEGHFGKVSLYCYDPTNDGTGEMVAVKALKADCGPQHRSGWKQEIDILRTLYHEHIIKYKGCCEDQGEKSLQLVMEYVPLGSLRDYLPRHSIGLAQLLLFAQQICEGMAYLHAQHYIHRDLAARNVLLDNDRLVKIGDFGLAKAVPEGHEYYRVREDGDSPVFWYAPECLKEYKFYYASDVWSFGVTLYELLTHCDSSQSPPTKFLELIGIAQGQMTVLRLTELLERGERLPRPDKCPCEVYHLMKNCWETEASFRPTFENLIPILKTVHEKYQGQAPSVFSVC
T2 sequence (P23458 whole entry): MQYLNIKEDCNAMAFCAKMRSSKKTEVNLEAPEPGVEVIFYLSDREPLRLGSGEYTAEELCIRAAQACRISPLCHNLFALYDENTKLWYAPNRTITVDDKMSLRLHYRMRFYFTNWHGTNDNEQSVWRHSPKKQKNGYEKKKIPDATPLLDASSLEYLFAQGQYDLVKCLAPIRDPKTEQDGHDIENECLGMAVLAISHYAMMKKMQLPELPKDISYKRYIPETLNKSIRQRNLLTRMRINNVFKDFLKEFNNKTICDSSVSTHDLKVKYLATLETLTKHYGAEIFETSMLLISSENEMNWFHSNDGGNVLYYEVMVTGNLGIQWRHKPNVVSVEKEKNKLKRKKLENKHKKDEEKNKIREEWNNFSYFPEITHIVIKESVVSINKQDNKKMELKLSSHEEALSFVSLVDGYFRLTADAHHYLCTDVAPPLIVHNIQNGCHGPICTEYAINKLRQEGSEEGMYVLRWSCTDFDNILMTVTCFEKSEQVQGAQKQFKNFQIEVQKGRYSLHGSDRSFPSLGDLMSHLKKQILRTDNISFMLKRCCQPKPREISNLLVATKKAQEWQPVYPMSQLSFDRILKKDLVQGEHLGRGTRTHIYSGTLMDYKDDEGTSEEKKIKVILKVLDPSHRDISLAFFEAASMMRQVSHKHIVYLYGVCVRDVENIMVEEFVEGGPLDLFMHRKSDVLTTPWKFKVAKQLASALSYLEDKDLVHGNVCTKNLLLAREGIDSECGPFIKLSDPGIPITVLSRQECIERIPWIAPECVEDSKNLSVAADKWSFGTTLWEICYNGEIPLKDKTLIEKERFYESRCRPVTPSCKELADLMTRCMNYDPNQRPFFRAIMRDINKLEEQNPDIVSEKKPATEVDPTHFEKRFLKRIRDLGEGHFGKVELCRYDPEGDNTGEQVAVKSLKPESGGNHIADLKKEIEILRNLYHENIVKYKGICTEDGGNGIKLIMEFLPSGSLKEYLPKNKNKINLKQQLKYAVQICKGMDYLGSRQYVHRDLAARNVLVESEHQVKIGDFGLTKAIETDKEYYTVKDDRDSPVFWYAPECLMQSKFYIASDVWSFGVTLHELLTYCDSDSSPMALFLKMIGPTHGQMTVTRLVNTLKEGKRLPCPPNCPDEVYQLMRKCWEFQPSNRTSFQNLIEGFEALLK

SMILES | IC50 [1] [µM] | IC50 (Recombinant JAK2) [µM] | IC50 (Recombinant JAK1) [µM] | IC50 (Recombinant JAK3) [µM] | IC50 ([2]; HT2, HT-2 cells) [µM] | IC50 (Recombinant TYK2) [µM] | IC50 ([2]; HT-2 cells) [µM]
CC(C)N1CCC([C@@](O)(c2ccc(-n3cc(-c4ccnc5[nH]cnc45)cn3)cc2)C(F)(F)F)C1 (stereo partly drawn) [Example 1252, (R)-1-(4-(4-(3H-imidazo[4,5-b]pyridin-7-yl)-1H-pyrazol-1-yl)phenyl)-2,2,2-trifluoro-1-(1-isopropylpyrrolidin-3-yl)ethanol] | 1.1 | < 0.1 | < 0.1 | < 0.1 | 1.63 | > 0.5 | 
CNC(=O)N1CC(C(O)(c2ccc(-n3cc(-c4ccnc5[nH]cnc45)cn3)nc2)C(F)(F)F)C1 (stereo not drawn) [Example 1246, 3-(1-(6-(4-(3H-imidazo[4,5-b]pyridin-7-yl)-1H-pyrazol-1-yl)pyridin-3-yl)-2,2,2-trifluoro-1-hydroxyethyl)-N-methylazetidine-1-carboxamide] | 1.5 | 0.034 | 0.006 | 0.006 | 2 | 0.79 | 
CS(=O)(=O)CCC(c1ccc(-n2cc(-c3ccnc4[nH]cnc34)cn2)cc1)C(F)(F)F (stereo not drawn) [Example 1190, 7-(1-(4-(1,1,1-trifluoro-4-(methylsulfonyl)butan-2-yl)phenyl)-1H-pyrazol-4-yl)-3H-imidazo[4,5-b]pyridine] | 1 | < 0.1 | < 0.1 | < 0.1 | 3.6 | > 1 | 
OC(CCN1CCOCC1)(c1ccc(-n2cc(-c3ccnc4[nH]cnc34)cn2)nc1)C(F)(F)F (stereo not drawn) [Example 1230, 2-(6-(4-(3H-imidazo[4,5-b]pyridin-7-yl)-1H-pyrazol-1-yl)pyridin-3-yl)-1,1,1-trifluoro-4-morpholinobutan-2-ol] | > 0.5 | < 0.1 | < 0.1 | < 0.1 | > 0.5 | > 0.5 | 
OC(CN1CCOCC1)(c1ccc(-n2cc(-c3ccnc4[nH]cnc34)cn2)nc1)C(F)(F)F (stereo not drawn) [Example 1229, 2-(6-(4-(3H-imidazo[4,5-b]pyridin-7-yl)-1H-pyrazol-1-yl)pyridin-3-yl)-1,1,1-trifluoro-3-morpholinopropan-2-ol] | > 1 | < 0.1 | < 0.1 | < 0.1 | > 1 | > 1 | 
CNC(=O)C[C@@H](c1ccc(-n2cc(-c3ccnc4[nH]cnc34)cn2)nc1)C(F)(F)F [Example 1214, (S)-3-(6-(4-(3H-imidazo[4,5-b]pyridin-7-yl)-1H-pyrazol-1-yl)pyridin-3-yl)-4,4,4-trifluoro-N-methylbutanamide] | > 1 | < 0.5 | < 0.1 | < 0.1 | > 1 | > 1 | 
N#CC(C(=O)NCC(F)(F)F)c1ccc(-n2cc(-c3ccnc4[nH]cnc34)cn2)nc1 (stereo not drawn) [Example 1168, 2-(6-(4-(3H-imidazo[4,5-b]pyridin-7-yl)-1H-pyrazol-1-yl)pyridin-3-yl)-2-cyano-N-(2,2,2-trifluoroethyl)acetamide] | > 1 | > 0.5 | > 0.1 | > 0.1 | > 1 | > 1 | 
N#CCC(=O)NCCC(c1ccc(-n2cc(-c3ccnc4[nH]cnc34)cn2)nc1)C(F)(F)F (stereo not drawn) [Example 1248, N-(3-(6-(4-(3H-imidazo[4,5-b]pyridin-7-yl)-1H-pyrazol-1-yl)pyridin-3-yl)-4,4,4-trifluorobutyl)-2-cyanoacetamide] | > 0.75 | < 0.1 | < 0.1 | < 0.1 | > 0.8 | > 0.5 | 
N#CCC(=O)NC(c1ccc(-n2cc(-c3ccnc4[nH]cnc34)cn2)nc1)C(F)(F)F (stereo not drawn) [Example 1192, N-(1-(6-(4-(3H-imidazo[4,5-b]pyridin-7-yl)-1H-pyrazol-1-yl)pyridin-3-yl)-2,2,2-trifluoroethyl)-2-cyanoacetamide] | > 0.8 | < 0.1 | < 0.1 | < 0.1 | > 0.8 | > 1 | 
CC(C)NCC[C@@H](c1ccc(-n2cc(-c3ccnc4[nH]cnc34)cn2)nc1)C(F)(F)F [Example 1207, (S)-3-(6-(4-(3H-imidazo[4,5-b]pyridin-7-yl)-1H-pyrazol-1-yl)pyridin-3-yl)-4,4,4-trifluoro-N-isopropylbutan-1-amine] | 0.43 | 0.01 | 0.005 | 0.005 | 1.08 | > 0.5 | 
CNCC[C@@H](c1ccc(-n2cc(-c3ccnc4[nH]cnc34)cn2)nc1)C(F)(F)F [Example 1217, (S)-3-(6-(4-(3H-imidazo[4,5-b]pyridin-7-yl)-1H-pyrazol-1-yl)pyridin-3-yl)-4,4,4-trifluoro-N-methylbutan-1-amine, TFA salt] | > 0.1 | 0.007 | 0.0026 | 0.006 | > 0.5 | 0.08 | 
CNCCC(c1ccc(-n2cc(-c3ccnc4[nH]cnc34)cn2)nc1)C(F)(F)F (stereo not drawn) [Example 1152, 3-(6-(4-(3H-imidazo[4,5-b]pyridin-7-yl)-1H-pyrazol-1-yl)pyridin-3-yl)-4,4,4-trifluoro-N-methylbutan-1-amine] | > 0.1 | < 0.1 | < 0.1 | < 0.1 |  | > 0.5 | > 0.1
O=C(NCCC(c1ccc(-n2cc(-c3ccnc4[nH]cnc34)cn2)nc1)C(F)(F)F)C1CC1 (stereo not drawn) [Example 1149, N-(3-(6-(4-(3H-imidazo[4,5-b]pyridin-7-yl)-1H-pyrazol-1-yl)pyridin-3-yl)-4,4,4-trifluorobutyl)cyclopropanecarboxamide] | > 0.5 | > 0.1 | < 0.1 | < 0.1 | > 0.5 | > 1 | 
O=S(=O)(CC[C@@H](c1ccc(-n2cc(-c3ccnc4[nH]cnc34)cn2)nc1)C(F)(F)F)C1CC1 [Example 1216, 7-(1-(5-((S)-4-(cyclopropylsulfonyl)-1,1,1-trifluorobutan-2-yl)pyridin-2-yl)-1H-pyrazol-4-yl)-3H-imidazo[4,5-b]pyridine] | 0.28 | < 0.1 | < 0.1 | < 0.1 | 0.51 | > 0.5 | 
CNC(=O)C[C@H](c1ccc(-n2cc(-c3ccnc4[nH]cnc34)cn2)nc1)C(F)(F)F [Example 1213, (R)-3-(6-(4-(3H-imidazo[4,5-b]pyridin-7-yl)-1H-pyrazol-1-yl)pyridin-3-yl)-4,4,4-trifluoro-N-methylbutanamide] | 0.55 | < 0.1 | < 0.1 | < 0.1 | 0.7 | > 0.5 | 
